How the values were obtained:
[1] = molecular target: T1, LCMV endonuclease domain (ENDO, ENDO-WT) (Lymphocytic choriomeningitis virus (strain Armstrong), UniProt P14240, D119A); assay: biochemical; type: binding
T1 construct: gene L; N-terminal endonuclease domain of L (residues 1-196), N-terminal hexahistidine tag, pDEST14, E. coli Rosetta (DE3) pLysS; IMAC, Q Sepharose, Superdex 200

[2] = molecular target: T2, LCMV endonuclease domain (ENDO, ENDO-WT) (Lymphocytic choriomeningitis virus (strain Armstrong), UniProt P14240); assay: biochemical; type: binding
T2 construct: gene L; N-terminal endonuclease domain of L (residues 1-196), N-terminal hexahistidine tag, pDEST14, E. coli Rosetta (DE3) pLysS; IMAC, Q Sepharose, Superdex 200

With O=C(O)C(=O)CC(=O)c1ccccc1 [compound 1, 2,4-dioxo-4-phenylbutanoic acid] as the compound, how does the Kd [1] read?
The Kd was 18800 ± 3880 nM.

And the Kd [2]?
The Kd was 5380 ± 2060 nM.

What does the source list for O=C(O)/C(O)=C/C(=O)C1(Cc2ccc(Cl)cc2)CCN(Cc2ccccc2)CC1 [compound 2, (Z)-4-{1-benzyl-4-[(4-chlorophenyl)methyl]piperidin-4-yl}-2-hydroxy-4-oxobut-2-enoic acid]?
Kd [1]: 890 ± 60 nM; Kd [2]: 510 ± 110 nM

O=C(O)C(O)=CC(=O)c1ccc(-c2ccccc2)cc1 [compound 3, 2-hydroxy-4-(biphenyl-4-yl)-4-oxobut-2-enoic acid] was tested. Which Kd [2] did it give?
Its Kd is 50 ± 20 nM.

For O=C(O)C(O)=CC(=O)c1ccc2ccc3ccccc3c2c1 [compound 4, 2-hydroxy-4-oxo-4-(phenanthren-3-yl)but-2-enoic acid], which Kd [2] is on record?
The Kd was 250 ± 70 nM.

Source: paper PMC5947727, “Crystal structures of Lymphocytic choriomeningitis virus endonuclease domain complexed with diketo-acid ligands” (IUCrJ, 2018)
